Experimental data: patent publication US20190106460A1, “BINDING INHIBITORS OF THE BETA. TRANSDUCIN REPEAT-CONTAINING PROTEIN” (priority 2011, published 2019)
Where two headings read alike, the source gives them in different places. Non-standard residues stand in square brackets, D forms with d. Residues, ends and D or L forms follow the SMILES beside them. *: point of attachment. Benzenesulfonyl(4-OMe) = COc1ccc(S(=O)(=O)*)cc1; 2Naphthylsulfonyl = O=S(=O)(c1ccc2ccccc2c1)*; Phe(3-F) = N[C@@H](Cc1cccc(F)c1)C(=O)O; NMeE = CN[C@@H](CCC(=O)O)C(=O)O; X2 = COc1ccc(S(=O)(=O)*)cc1OC; Tos = Cc1ccc(S(=O)(=O)*)cc1; Propionyl = CCC(=O)*; Bz = O=C(c1ccccc1)*

Experiments:
FBW7/Skp1 = FBW7/Skp1 (Homo sapiens, UniProt Q969H0); assay: Selectivity assay vs other E3s: Fbw7; type: biochemical; conditions: for inhibition at 100 µM: read-out: % Inhibition Fbw7 @ (100 μM); for inhibition at 10 µM: read-out: % Inhibition Fbw7 @ 10 μM
FBW7/Skp1, sequence (Q969H0 whole entry, species assumed): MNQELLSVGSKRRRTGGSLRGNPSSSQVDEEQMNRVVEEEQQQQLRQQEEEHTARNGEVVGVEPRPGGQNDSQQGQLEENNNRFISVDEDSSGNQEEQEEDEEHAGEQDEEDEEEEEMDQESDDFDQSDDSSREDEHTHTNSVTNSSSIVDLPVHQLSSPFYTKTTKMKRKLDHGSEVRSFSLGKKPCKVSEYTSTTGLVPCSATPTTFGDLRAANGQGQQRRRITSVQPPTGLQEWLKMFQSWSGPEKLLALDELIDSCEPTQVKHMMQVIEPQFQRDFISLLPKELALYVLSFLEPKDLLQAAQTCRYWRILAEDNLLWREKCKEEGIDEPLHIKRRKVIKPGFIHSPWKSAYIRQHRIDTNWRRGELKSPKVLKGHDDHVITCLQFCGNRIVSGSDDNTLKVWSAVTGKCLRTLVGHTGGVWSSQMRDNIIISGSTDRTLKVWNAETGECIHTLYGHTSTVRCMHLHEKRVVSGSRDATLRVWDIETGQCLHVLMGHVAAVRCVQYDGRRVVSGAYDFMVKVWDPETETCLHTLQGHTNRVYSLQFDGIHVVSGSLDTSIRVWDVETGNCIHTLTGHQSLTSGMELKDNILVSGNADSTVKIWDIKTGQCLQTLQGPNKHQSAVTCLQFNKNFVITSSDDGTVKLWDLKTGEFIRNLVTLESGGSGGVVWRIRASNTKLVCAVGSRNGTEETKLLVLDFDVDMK
FBW7/Skp1, sequence (P63208 whole entry partner, species assumed): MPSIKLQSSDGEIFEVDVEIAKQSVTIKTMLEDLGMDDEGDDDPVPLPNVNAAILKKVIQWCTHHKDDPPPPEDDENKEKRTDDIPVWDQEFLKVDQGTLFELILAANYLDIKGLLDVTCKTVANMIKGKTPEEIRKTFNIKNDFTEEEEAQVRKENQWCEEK
FBW7/Skp1, sequence (Q13616 whole entry partner, species assumed): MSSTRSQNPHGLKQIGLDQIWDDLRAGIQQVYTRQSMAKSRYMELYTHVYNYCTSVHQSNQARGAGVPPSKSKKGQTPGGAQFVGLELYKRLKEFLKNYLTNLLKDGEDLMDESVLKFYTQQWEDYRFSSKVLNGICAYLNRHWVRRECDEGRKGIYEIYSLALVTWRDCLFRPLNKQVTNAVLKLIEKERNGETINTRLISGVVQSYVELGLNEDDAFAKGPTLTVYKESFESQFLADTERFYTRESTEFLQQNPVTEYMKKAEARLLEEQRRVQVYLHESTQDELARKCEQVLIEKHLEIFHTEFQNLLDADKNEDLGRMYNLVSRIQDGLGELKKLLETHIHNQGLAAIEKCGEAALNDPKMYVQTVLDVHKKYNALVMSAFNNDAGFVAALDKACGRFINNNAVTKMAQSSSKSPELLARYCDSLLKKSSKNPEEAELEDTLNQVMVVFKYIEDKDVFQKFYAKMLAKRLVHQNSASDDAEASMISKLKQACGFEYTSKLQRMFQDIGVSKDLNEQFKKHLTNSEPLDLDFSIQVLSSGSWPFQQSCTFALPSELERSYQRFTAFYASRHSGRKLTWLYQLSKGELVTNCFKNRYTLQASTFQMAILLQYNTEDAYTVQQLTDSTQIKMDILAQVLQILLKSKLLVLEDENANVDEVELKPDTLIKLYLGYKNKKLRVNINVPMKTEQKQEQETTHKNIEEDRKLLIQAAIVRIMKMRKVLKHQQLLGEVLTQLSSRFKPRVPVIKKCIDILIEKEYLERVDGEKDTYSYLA
FBW7/Skp1, sequence (P62877 whole entry partner, species assumed): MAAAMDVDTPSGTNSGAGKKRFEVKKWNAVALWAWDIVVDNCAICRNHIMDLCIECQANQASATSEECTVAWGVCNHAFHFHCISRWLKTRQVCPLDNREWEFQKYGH
Protocol: (§1) βTrCP Ubiquitination Assay and Selectivity Assays
(§2) Master mixes were prepared in a 50 mM Herpes buffer at pH 7.5, in 75 mM NaCl and 1 mM DTT without Mg or ATP and peptides were added to a final concentration of 100 μM. Reactions were incubated at room temperature for 30 minutes and then Mg/ATP was added to the mix. Reactions were further incubated for an additional 60 minutes and then stopped by adding SDS gel loading buffer and boiled for 5 minutes. Reactions were run on SDS-PAGE (10%) and transferred to nitrocellulose membranes and probed with HRP-Streptavidin.
FBW7 selectivity assays were performed in the same manner except using FBW7/Skp1 as E3 component and cyclin E as the substrate. Blots were probed using anti-cyclin E antibody.
(§3) Candidate compounds were tested for inhibition of Fbw7 and Skp2 as described above.

βTrCP [1] = molecular target: T1, βTrCP (Homo sapiens, UniProt Q9Y297); assay: Biotin pull down assay with biotinylated IκB peptide; type: binding; conditions: for Biotin Pulldown Assay 10 μM: 10 μM compound; for Biotin Pulldown Assay 100 μM: 100 μM compound
T1 sequence (Q9Y297 1-605): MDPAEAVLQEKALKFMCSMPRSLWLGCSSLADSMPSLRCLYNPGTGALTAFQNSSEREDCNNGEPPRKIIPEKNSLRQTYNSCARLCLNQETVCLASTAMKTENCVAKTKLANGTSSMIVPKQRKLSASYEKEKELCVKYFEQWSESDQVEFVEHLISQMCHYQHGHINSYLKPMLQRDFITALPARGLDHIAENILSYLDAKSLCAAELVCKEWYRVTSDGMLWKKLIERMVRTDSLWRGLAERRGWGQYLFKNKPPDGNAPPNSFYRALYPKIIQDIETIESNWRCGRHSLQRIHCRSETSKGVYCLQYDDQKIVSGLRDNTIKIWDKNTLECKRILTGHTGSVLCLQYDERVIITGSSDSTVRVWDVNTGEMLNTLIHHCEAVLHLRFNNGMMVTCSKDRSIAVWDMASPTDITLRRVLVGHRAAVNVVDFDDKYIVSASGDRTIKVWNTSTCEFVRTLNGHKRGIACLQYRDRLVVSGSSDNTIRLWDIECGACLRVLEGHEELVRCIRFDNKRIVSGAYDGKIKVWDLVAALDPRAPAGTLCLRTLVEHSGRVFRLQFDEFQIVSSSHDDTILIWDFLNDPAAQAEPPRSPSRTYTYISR

β-TrCP1/Skp1 = β-TrCP1/Skp1 (Homo sapiens, UniProt Q9Y297); assay: βTrCP ubiquitination assay (Ub assay); type: biochemical; conditions: for Ub Assay 10 μM: 10 μM compound; for Ub Assay 100 μM: 100 μM compound
β-TrCP1/Skp1, sequence (P63208 2-163 partner limits assumed, one chain of several): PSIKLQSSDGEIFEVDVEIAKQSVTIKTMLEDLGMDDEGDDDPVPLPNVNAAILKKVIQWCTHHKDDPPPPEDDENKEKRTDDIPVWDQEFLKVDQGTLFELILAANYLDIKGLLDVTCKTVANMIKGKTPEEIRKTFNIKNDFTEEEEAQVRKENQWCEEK
Protocol: as §1
0.5 μM Peptide substrate (biotin)
as §2
Candidate compounds were tested in duplicate at both 10 and 100 μM against the E3 ligase cascades βTrCP(IκBα) and βTrCP(β-catenin). The E3 assays were carried out according to the component concentrations detailed in Table 9. In each case the E2 was HA,6His-UbcH3-(hu,FL), the E1 was 6His-UBE1-(hu,FL) and the ubiquitin (Sigma U6253) was biotinylated at a 5:1 ratio. Substrate phosphorylation was performed in the absence of compound; consequently any observed signal modulation should not reflect inhibition of the up-stream kinase reaction. All other steps (E1, E2 and substrate ubiquitination) were carried out in the presence of compound. The stopped reaction mix (10 μl) was added to an ECL plate loaded with anti c-Myc ( 1/500 Dilution, Millipore 05-724) and blocked with 5% BSA. Binding was allowed to proceed for 1 hour at RT before a wash step (3 40 μl PBST washes). Detection was achieved by binding SA-Ru TAG at 1 μg/ml (1 hour @ RT, 3 40 μl PBST washes) before reading on an MSD Sector Imager 6000.
Assays were performed as described above

Skp2 = Skp2 (Homo sapiens, UniProt Q13309); assay: Selectivity assay vs other E3s: Skp2; type: biochemical; conditions: for inhibition at 100 µM: read-out: % Inhibition Skp2 @ (100 μM); for inhibition at 10 µM: read-out: % Inhibition Skp2 @ 10 μM
Skp2, sequence (Q13309 whole entry, species assumed): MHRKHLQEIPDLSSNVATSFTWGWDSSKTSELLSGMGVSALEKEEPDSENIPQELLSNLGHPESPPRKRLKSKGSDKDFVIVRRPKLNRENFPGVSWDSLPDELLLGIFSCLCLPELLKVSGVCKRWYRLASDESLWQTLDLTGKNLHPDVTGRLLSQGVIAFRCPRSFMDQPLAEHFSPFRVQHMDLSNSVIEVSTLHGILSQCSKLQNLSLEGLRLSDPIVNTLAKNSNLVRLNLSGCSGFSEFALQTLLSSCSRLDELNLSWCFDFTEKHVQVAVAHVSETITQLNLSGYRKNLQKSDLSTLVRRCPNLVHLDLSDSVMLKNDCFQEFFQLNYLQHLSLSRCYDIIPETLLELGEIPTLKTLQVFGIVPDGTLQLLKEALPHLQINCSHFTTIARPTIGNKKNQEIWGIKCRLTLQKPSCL
Skp2, sequence (P63208 whole entry partner, species assumed): as the sequence (P63208 whole entry partner, species assumed) above
Skp2, sequence (Q13616 whole entry partner, species assumed): as the sequence (Q13616 whole entry partner, species assumed) above
Skp2, sequence (P62877 whole entry partner, species assumed): as the sequence (P62877 whole entry partner, species assumed) above
Protocol: as §1, §2, §3

βTrCP [2] = molecular target: βTrCP (Homo sapiens, UniProt Q9Y297); assay: Fluorescence polarisation (FP) binding assay with fluorescein-tagged IκB peptide
Target sequence in this assay (P63208 whole entry partner, one chain of several): as the sequence (P63208 whole entry partner, species assumed) above

[3] = Table 11, with spread, read-out: FP IC50/μM
[4] = Tables 1, 3, 7, 8, 10 nM fluorescein-tagged IκB peptide, read-out: FP Assay IC50/μM

Compound	inhibition at 100 µM (FBW7/Skp1; 100 μM, value in brackets) [%]	inhibition at 10 µM (FBW7/Skp1) [%]	Biotin Pulldown Assay 10 μM (βTrCP [1])	Biotin Pulldown Assay 100 μM (βTrCP [1])	Ub Assay 10 μM (β-TrCP1/Skp1)	Ub Assay 100 μM (β-TrCP1/Skp1)	inhibition at 100 µM (Skp2; 100 μM, value in brackets) [%]	inhibition at 10 µM (Skp2) [%]	IC50 (βTrCP [2]; [3]) [µM]	inhibition at 100 µM (FBW7/Skp1) [%]	inhibition at 100 µM (Skp2) [%]	IC50 (βTrCP [2]; FP Assay IC50/μM, Tables 1, 3, 7, 8, 10 nM fluorescein-tagged IκB peptide) [µM]	IC50 (βTrCP [2]; FP IC50/μM, Table 11, with spread) [µM]	IC50 (βTrCP [2]; [4]) [µM]
COc1ccc(S(=O)(=O)N[C@H](CC(=O)O)C(=O)N[C@@H](CCC(=O)O)C(=O)NCC(=O)N[C@@H](Cc2cccc(F)c2)C(=O)N[C@@H](Cc2c[nH]c3ccccc23)C(=O)N[C@@H](CCC(=O)O)C(N)=O)cc1OC [UBP029, 3,4-(MeO)2-PhSO2-dEGF(3F)WE-NH2] (X2-[dD]EG[Phe(3-F)]WE-NH2)	0	2	reduces/	inhibits	reduces/	inhibits	19	19	0.042 ± 0.001					
COc1ccc(S(=O)(=O)N[C@H](CC(=O)O)C(=O)N[C@@H](CCC(=O)O)C(=O)NCC(=O)N[C@@H](Cc2cccc(F)c2)C(=O)N[C@@H](Cc2c[nH]c3ccccc23)C(=O)N[C@@H](CCC(=O)O)C(N)=O)cc1 [4-(MeO)-PhSO2-dEGF(3F)WE-NH2] ({Benzenesulfonyl(4-OMe)}-[dD]EG[Phe(3-F)]WE-NH2)	18	0					12	7	0.017 ± 0.002					
NC(=O)[C@H](CCC(=O)O)NC(=O)[C@H](Cc1c[nH]c2ccccc12)NC(=O)[C@H](Cc1cccc(F)c1)NC(=O)CNC(=O)[C@H](CCC(=O)O)NC(=O)[C@@H](CC(=O)O)NC(=O)c1ccccc1 [UBP018, Bz-dEGF(3F)WE-NH2] (Bz-[dD]EG[Phe(3-F)]WE-NH2)		0	reduces/	inhibits	reduces/	inhibits		0		5	0	0.173	0.173 ± 0.072	
Cc1ccc(S(=O)(=O)N[C@H](CC(=O)O)C(=O)N[C@@H](CC(=O)O)C(=O)NCC(=O)N[C@@H](Cc2cccc(F)c2)C(=O)N[C@@H](Cc2c[nH]c3ccccc23)C(=O)N[C@@H](CCC(=O)O)C(N)=O)cc1 [UBP025, Ts-dDGF(3F)WE-NH2] (Tos-[dD]DG[Phe(3-F)]WE-NH2)	8	1	s. reduces/	inhibits	inhibits/	inhibits	22	0	0.025 ± 0.004					0.025
CCC(=O)N[C@H](CC(=O)O)C(=O)N[C@@H](CCC(=O)O)C(=O)NCC(=O)N[C@@H](Cc1cccc(F)c1)C(=O)N[C@@H](Cc1c[nH]c2ccccc12)C(=O)N[C@@H](CCC(=O)O)C(N)=O [UBP019, Et(CO)-dEGF(3F)WE-NH2] (Propionyl-[dD]EG[Phe(3-F)]WE-NH2)	10	0	reduces/	inhibits	reduces/	inhibits	10	1	0.145 ± 0.026					0.145
NC(=O)[C@H](CCC(=O)O)NC(=O)[C@H](Cc1c[nH]c2ccccc12)NC(=O)[C@H](Cc1cccc(F)c1)NC(=O)CNC(=O)[C@H](CCC(=O)O)NC(=O)[C@@H](CC(=O)O)NS(=O)(=O)c1ccc2ccccc2c1 [UBP031, 2-NaphthylSO2-dEGF(3F)WE-NH2] (2Naphthylsulfonyl-[dD]EG[Phe(3-F)]WE-NH2)	11	10	reduces/	inhibits	reduces/	inhibits	17	0	0.044 ± 0.005					
Cc1ccc(S(=O)(=O)N[C@H](CC(=O)O)C(=O)N[C@@H](CCC(=O)O)C(=O)NCC(=O)N[C@@H](Cc2cccc(F)c2)C(=O)N[C@@H](Cc2c[nH]c3ccccc23)C(=O)N[C@@H](CCC(=O)O)C(N)=O)cc1 [Ts-dEGF(3F)WE-NH2] (Tos-[dD]EG[Phe(3-F)]WE-NH2)	0	9					25	19	0.029 ± 0.005					
Cc1ccc(S(=O)(=O)N[C@@H](CC(=O)O)C(=O)N[C@@H](CCC(=O)O)C(=O)NCC(=O)N[C@@H](Cc2cccc(F)c2)C(=O)N[C@@H](Cc2c[nH]c3ccccc23)C(=O)N[C@@H](CCC(=O)O)C(N)=O)cc1 [Ts-DEGF(3F)WE-NH2] (Tos-DEG[Phe(3-F)]WE-NH2)	8	0					7	0	0.018 ± 0.002					
Cc1ccc(S(=O)(=O)N[C@H](CC(=O)O)C(=O)N[C@@H](CCC(=O)O)C(=O)NCC(=O)N[C@@H](Cc2cccc(F)c2)C(=O)N[C@@H](Cc2c[nH]c3ccccc23)C(=O)N(C)[C@@H](CCC(=O)O)C(N)=O)cc1 [UBP032, Ts-dEGF(3F)WE(Me)-NH2] (Tos-[dD]EG[Phe(3-F)]W[NMeE]-NH2)	10	4		inhibits		inhibits	0	0						
COc1ccc(S(=O)(=O)N[C@@H](CC(=O)O)C(=O)N[C@@H](CCC(=O)O)C(=O)NCC(=O)N[C@@H](Cc2cccc(F)c2)C(=O)N[C@@H](Cc2c[nH]c3ccccc23)C(=O)N[C@@H](CCC(=O)O)C(N)=O)cc1 [4-(MeO)-PhSO2-DEGF(3F)WE-NH2] ({Benzenesulfonyl(4-OMe)}-DEG[Phe(3-F)]WE-NH2)	8	0					3	15	0.027 ± 0.002					
